Consider 6 molecules from paper PMC8197361, “Assessing the Interactions of Statins with Human Adenylate Kinase Isoenzyme 1: Fluorescence and Enzyme Kinetic Studies” (International Journal of Molecular Sciences, 2021).

The target in test [1] is T1, human adenylate kinase isoenzyme 1 (hAK1) (Homo sapiens, UniProt P00568).
T1 construct: thrombin recognition site (C); 6xHis-tag (C); made in house; host or cells: E. coli BL21-CodonPlus(DE3)-RIL, pET-3a(+)
T1 sequence (P00568 1-194): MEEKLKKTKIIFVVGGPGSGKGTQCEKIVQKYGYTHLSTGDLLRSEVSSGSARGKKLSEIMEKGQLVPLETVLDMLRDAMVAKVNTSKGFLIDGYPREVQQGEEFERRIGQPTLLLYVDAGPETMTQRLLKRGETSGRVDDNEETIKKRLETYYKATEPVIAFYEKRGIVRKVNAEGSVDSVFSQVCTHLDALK
Kind of test: Adenylate kinase activity assay and enzyme inhibition studies (RP-HPLC), hAK1. In kind it is biochemical. The settings on record: for IC50: 37 °C. As for the experimental part:
The reaction mixture for ATP synthesis contained 2 mM MgCl2, 1 mM ADP in 10 mM HEPES-NaOH, pH 7.5. The reaction mixture for ADP synthesis was composed of 2 mM MgCl2, 1 mM AMP and ATP each, in 10 mM HEPES-NaOH, pH 7.5. […] Studies on the statin inhibition mode were performed using varying concentrations of ADP as a substrate (from 0.2 to 1.0 mM) at different fixed concentrations of statin (0, 150, 300 and 450 µM). Adenylate kinase activity measurement was carried out in 50 μL of the reaction mixture for 5–10 min at 37 °C. The reaction was terminated by the addition of 50 μL of 1 M HClO4. After 5 min incubation on ice, samples were centrifuged at 15,000× g for 5 min at 4 °C. Then, 50 μL of the obtained supernatant was neutralized with 25 μL of 1 M KOH and delipidated by shaking with n-heptane (1:5 v/v). The samples were centrifuged as above, and subsequently, adenine nucleotide concentrations were analyzed by the RP-HPLC (reversed-phase high-performance liquid chromatography) method as previously described. Briefly, purine nucleotides were separated in isocratic conditions on the Chromolith Performance RP-18e column, 4.6 mm × 100 mm (Merck, Darmstadt, Germany) using the Shimadzu Prominence LC (Kyoto, Japan) equipped with pump (LC-20AD), autosampler (SIL-20AC), column thermostat (CTO-10AS) and photodiode array detector (SPD-M20A). HPLC system control, data acquisitions and processing were done with LabSolutions software. The samples were eluted using 0.1 M phosphate buffer, pH 7.0 containing 25 mM TBA, 5 mM EDTA and 3% methanol. ADP and ATP produced during the AK-catalyzed reaction were detected at λ = 260 nm based on the retention times of standard nucleotide solutions. The AK enzymatic activity was determined by quantifying the product concentration using correlation coefficients calculated from ADP and ATP calibration curves. One unit (U) of AK activity is defined as the amount of the enzyme that catalyzes the production of 1.0 μmole of ADP or ATP per minute at 37 °C, under the assay conditions specified above. The specific activity of AK was calculated as the number of units per milligram of protein. The Lineweaver–Burk plot was used to present enzyme-substrate reactions with and without statin, where the y-intercept is equivalent to the inverse of Vmax and the x-intercept represents −1/KM. The calculation of the IC50 values was performed using GraphPad Prism 8 Software (San Diego, CA, USA).

Test [2] addresses T1, human adenylate kinase isoenzyme 1 (hAK1). Kind of test: Fluorescence quenching of hAK1 intrinsic (tyrosine) fluorescence by statins, one-site binding model. The settings on record: read-out: Kd (dissociation constant). The protocol: The fluorescence emission spectra and plots of F versus [L] for the hAK1 quenching process at 20 and 25 °C are presented in Figure S2, while the emission spectra of hAK1, buffer (HEPES-NaOH) and five statins are shown in Figure S3. To analyze the quenching data upon the formation of an hAK1-statin complex, we used the following equation, which assumes a 1:1 stoichiomery:(1) PL/Pt=Pt+La+Kd−(Pt+La+Kd)^2−4PtLa/2Pt where Kd is the dissociation constant, [P]t is the concentration of protein, [L]a is the total concentration of the ligand, and [PL] it the concentration of protein-ligand complex.
The obtained fluorescence data were fitted to the one-site binding model with an applied nonlinear least-squares regression using OriginPro software (Figure 3).
Measurements were recorded in the range of 300–600 nm after excitation at λ = 289 nm at 20, 25 and 37 °C. Stock solutions of all statins were prepared in ethanol. The samples were prepared in 2 mL Eppendorf tubes and contained hAK1 at a concentration of 2 µM alone or with a statin at the following concentrations: 2, 4, 8, 16, 24, 32 and 40 µM, and 25 mM HEPES-NaOH (pH 7.5) was added to each tube, up to 2 mL. Then, the sample was transferred into the quartz cell and the spectrum was recorded. The emission spectra were measured three times. The fluorescence spectra of hAK1 in presence of statins were corrected for the inner filter effect using the following equation [63, 64]:(2) Fcor=Fobs∗ 10^AλEx+AλEm/2 where Fcor is the corrected fluorescence intensity and Fobs is the observed fluorescence intensity, AλEx is the absorption value at the excitation wavelength and AλEm is the absorption value at the emission wavelength. The fluorescence data were fitted by applying a nonlinear least-squares regression using OriginPro software Version 2016 (OriginLab Corporation, Northampton, MA, USA).

The subject of a further test is serum AK. Also noted: method as in PMID 18576946. The settings on record: 0.5 mM AMP and 0.8 mM ATP as substrates; cited from earlier work.
Test [3] has as its system endothelial cell-surface AK. Also noted: method as in PMID 18576946. To be noted: 0.5 mM AMP and 0.8 mM ATP as substrates; cited from earlier work.
In test [4] the target is T2, adenylate kinase from Geobacillus stearothermophilus (AKst) (Geobacillus stearothermophilus, UniProt P27142).
T2 construct: made in house; host or cells: E. coli BL21-CodonPlus(DE3)-RIL, pET-3a(+)
Kind of test: Adenylate kinase activity assay in the presence of statins, AKst (long type AK). In kind it is biochemical. To be noted: same drug concentration range as in hAK1 experiments; ADP or ATP and AMP as substrates, 1 mM each. As for the experimental part:
Next, we measured the enzymatic activity of AKst in the presence of RVS and SVS at the same drug concentration range as in the hAK1 experiments (Figure S4). […] This region has limited accessibility in AKst due to the presence of a markedly bigger LID domain as compared to hAK1, which may consequently prevent the binding of statins to AKst.
The reaction mixture for ATP synthesis contained 2 mM MgCl2, 1 mM ADP in 10 mM HEPES-NaOH, pH 7.5. The reaction mixture for ADP synthesis was composed of 2 mM MgCl2, 1 mM AMP and ATP each, in 10 mM HEPES-NaOH, pH 7.5. […] Studies on the statin inhibition mode were performed using varying concentrations of ADP as a substrate (from 0.2 to 1.0 mM) at different fixed concentrations of statin (0, 150, 300 and 450 µM). […] The samples were centrifuged as above, and subsequently, adenine nucleotide concentrations were analyzed by the RP-HPLC (reversed-phase high-performance liquid chromatography) method as previously described. […] ADP and ATP produced during the AK-catalyzed reaction were detected at λ = 260 nm based on the retention times of standard nucleotide solutions. The AK enzymatic activity was determined by quantifying the product concentration using correlation coefficients calculated from ADP and ATP calibration curves. […] The specific activity of AK was calculated as the number of units per milligram of protein. […]

The mark [5] stands for this setting: 1 mM ADP, ATP synthesis direction, read-out: IC50 (ADP as a Substrate).
Setting [6] is: 1 mM AMP and ATP each, ADP synthesis direction, read-out: IC50 (ATP + AMP as Substrates).
[7] abbreviates: 20 °C, 2 µM hAK1, 25 mM HEPES-NaOH pH 7.5.
[8] abbreviates: 25 °C, 2 µM hAK1, 25 mM HEPES-NaOH pH 7.5.
Setting [9] is: 37 °C, 2 µM hAK1, 25 mM HEPES-NaOH pH 7.5.

Each structure is given as a SMILES string. Like-named read-outs stand apart in the source and are kept apart here. Where only a bound is given, the exact number is not on record here.

T2 sequence (P27142 whole entry): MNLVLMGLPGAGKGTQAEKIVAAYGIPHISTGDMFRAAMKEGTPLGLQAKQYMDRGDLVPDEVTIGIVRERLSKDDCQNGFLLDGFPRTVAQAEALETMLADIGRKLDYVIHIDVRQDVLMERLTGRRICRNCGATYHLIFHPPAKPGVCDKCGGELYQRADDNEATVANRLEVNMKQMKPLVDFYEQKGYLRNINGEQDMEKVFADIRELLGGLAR

What is called IC50 is the concentration that inhibits the measured activity by half. As usually defined, the Kd is the equilibrium constant for the complex coming apart. For the molecule `CC(C)c1c(C(=O)Nc2ccccc2)c(-c2ccccc2)c(-c2ccc(F)cc2)n1CC[C@@H](O)C[C@@H](O)CC(=O)O` [AVS, Atorvastatin], the IC50 was 223 ± 34 µM in test [1] (setting [5]); 237 ± 31 µM in test [1] (setting [6]); over 200 µM in test [1] (ADP or ATP + AMP as substrates, read-out: IC50 values in both directions of the hAK1-catalyzed reaction). Moreover, the Kd in test [2] (setting [7]) was found to be 16 ± 2.1 µM; in test [2] (setting [8]), 27.2 ± 6.8 µM; in test [2] (setting [9]) it was 29.5 ± 3.7 µM.

`Nc1ncnc2c1ncn2[C@@H]1O[C@H](COP(=O)(O)OP(=O)(O)OP(=O)(O)OP(=O)(O)OP(=O)(O)OC[C@H]2O[C@@H](n3cnc4c(N)ncnc43)[C@H](O)[C@@H]2O)[C@@H](O)[C@H]1O` [Ap5A, P^1,P^5-di(adenosine-5′)pentaphosphate]: the figures for the IC50 (with serum AK; in test [3]) were 6.3 µM and 6 µM, respectively.

For the molecule `CC(C)n1c(/C=C/C(O)CC(O)CC(=O)O)c(-c2ccc(F)cc2)c2ccccc21` (stereo not drawn) [FVS, Fluvastatin], the IC50 in test [1] (setting [5]) amounted to 126 ± 7 µM; in test [1] (setting [6]), 156 ± 11 µM. Moreover, the Kd in test [2] (setting [7]) was found to be 17.4 ± 2 µM; in test [2] (setting [8]) it was 23.1 ± 4 µM; in test [2] (setting [9]), 26.6 ± 5.5 µM.

Regarding `CC[C@H](C)C(=O)O[C@H]1C[C@H](O)C=C2C=C[C@H](C)[C@H](CC[C@@H](O)C[C@@H](O)CC(=O)O)[C@H]21` [PVS, Pravastatin], the IC50 in test [1] (setting [5]) came out at 95 ± 19 µM; in test [1] (setting [6]) it was 211 ± 33 µM. Besides, the Kd was found to be 19.4 ± 4.1 µM in test [2] (setting [7]), 26.4 ± 6.2 µM in test [2] (setting [8]) and 28.6 ± 8.2 µM in test [2] (setting [9]).

Turning to `CC(C)c1nc(N(C)S(C)(=O)=O)nc(-c2ccc(F)cc2)c1/C=C/[C@@H](O)C[C@@H](O)CC(=O)O` [RVS, Rosuvastatin], the IC50 in test [1] (setting [5]) turned out to be 166 ± 20 µM; in test [1] (setting [6]), 89 ± 15 µM. In addition, the “hAK1 inhibition mode (Lineweaver-Burk plot)” value in test [1] (ADP 0.2 to 1.0 mM, fixed statin concentrations 0, 150, 300 and 450 µM) is listed as “noncompetitive”. The hAK1 inhibition in test [1] (RVS at a concentration above 200 μM) was 90%. The Kd in test [2] (setting [7]) was determined as 9.2 ± 1.5 µM; in test [2] (setting [8]) it was 16.8 ± 1.8 µM; in test [2] (setting [9]), 18.9 ± 3.2 µM. Also, the “Effect on the AKst enzymatic activity” value in test [4] is given as “not found any inhibitory effect”.

As to `CCC(C)(C)C(=O)O[C@H]1C[C@@H](C)C=C2C=C[C@H](C)[C@H](CC[C@@H]3C[C@@H](O)CC(=O)O3)[C@H]21` [SVS, Simvastatin], the IC50 in test [1] (setting [5]) is 5.5 ± 1.2 µM; in test [1] (setting [6]), 3.1 ± 0.5 µM. Also, the Kd is 6.6 ± 1.2 µM in test [2] (setting [7]), 10.9 ± 1.6 µM in test [2] (setting [8]), 15.2 ± 2 µM in test [2] (setting [9]) and 15.2 ± 2 µM in test [2] (37 °C). Besides, the “Effect on the AKst enzymatic activity” value in test [4] was “not found any inhibitory effect”.
